Assay results as given in article PMC11939327, “Chaetocin, a Natural Inhibitor of Transketolase, Suppresses the Non-Oxidative Pentose Phosphate Pathway and Inhibits the Growth of Drug-Resistant Non-Small Cell Lung Cancer” (Antioxidants, 2025).

Biological target: T1, transketolase (TKT) (Homo sapiens, UniProt P29401)
T1 sequence (P29401 1-623): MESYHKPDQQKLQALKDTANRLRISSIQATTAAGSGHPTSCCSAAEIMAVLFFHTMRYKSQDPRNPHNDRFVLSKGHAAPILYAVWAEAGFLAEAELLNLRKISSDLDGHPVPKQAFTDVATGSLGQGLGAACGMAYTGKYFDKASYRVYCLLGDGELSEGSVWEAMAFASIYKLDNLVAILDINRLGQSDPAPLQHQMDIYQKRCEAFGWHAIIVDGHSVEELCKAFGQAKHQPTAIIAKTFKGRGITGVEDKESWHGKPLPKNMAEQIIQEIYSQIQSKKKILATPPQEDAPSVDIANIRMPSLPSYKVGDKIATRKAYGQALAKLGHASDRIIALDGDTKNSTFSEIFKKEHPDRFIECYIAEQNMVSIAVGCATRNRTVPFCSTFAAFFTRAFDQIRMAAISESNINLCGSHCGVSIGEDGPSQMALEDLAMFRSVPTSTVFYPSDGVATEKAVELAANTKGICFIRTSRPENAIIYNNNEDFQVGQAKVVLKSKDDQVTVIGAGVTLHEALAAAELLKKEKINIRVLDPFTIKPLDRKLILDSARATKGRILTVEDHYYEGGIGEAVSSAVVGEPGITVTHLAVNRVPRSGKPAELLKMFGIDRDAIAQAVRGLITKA
Experiment: Bio-layer interferometry with biotinylated TKT on SA biosensors; supported by DARTS and CETSA in A549/DDP cells
Format: binding

SMILES: CN1C(=O)[C@@]23C[C@]4([C@]56C[C@@]78SS[C@@](CO)(C(=O)N7[C@H]5Nc5ccccc56)N(C)C8=O)c5ccccc5N[C@@H]4N2C(=O)[C@]1(CO)SS3 [chaetocin]
- Kd: 63.2 µM
